Reference: patent US20240158430A1, “NOVEL COMPOUND OR SALT THEREOF, AND ANTITUMOR ACTIVATOR CONTAINING SAME AS ACTIVE INGREDIENT” (AKITA UNIVERSITY, priority 2021, published 2024)
Where two headings read alike, the source gives them in different places.

Assays:
[1] = system: colorectal cancer cell line HT29; assay: Cell growth inhibitory activity, HT29; assay type: cell-based; settings: Table 4; 72 hours
[2] = system: gastric cancer cell line KATO III; assay: Cell growth inhibitory activity, KATO III; assay type: cell-based
Experimental: (§1) The cell growth inhibitory activity against a colorectal cancer cell line HCT116 was measured. As an index of cell growth inhibitory activity, a concentration at which cell growth was inhibited by 50% as compared with a control (IC50) was used. The method is as follows. HCT116 was added to a 6-well plate by 5×10^4, compounds having various concentrations were added after 24 hours, and the number of cells was counted after 72 hours of culture. As the control, DMSO was used in an amount equal to the amount added in accordance with the addition concentration of the highest-concentration compound. The number of cells at each concentration relative to the control was expressed as a percentage.
(§2) The method is as described above.
The cell growth inhibitory activity (IC50) of each of curcumin, GO-Y199, and GO-Y206 against the colorectal cancer cell lines DLD-1 and HCT116 and the gastric cancer cell lines KATO III and H-111-TC was measured. The method is as described above.

Turbidity measurement = assay type: physicochemical
Experimental: The turbidity of various compounds was measured. The method is as follows. […] Curcumin was cloudy while GO-Y199 was clear. The solubility was measured with a turbidimeter (WZB-170 Portable Turbidimeter available from REX). The turbidity of the compound was corrected for concentration.
Subsequently, GO-Y206 and curcumin were adjusted to final concentrations of 1.25 μM and 5.00 μM, respectively, and their turbidities were measured.

[3] = system: breast cancer cell line HCC38; assay: Cell growth inhibitory activity, HCC38; assay type: cell-based
Experimental: [The source words this procedure for another cell line and reports this cell line under the same test.] as §1, §2

[4] = system: FOXP3-positive regulatory T cells; assay: Regulatory T cell inhibitory activity; assay type: cell-based, mouse; settings: 0.3 μM; control 12.8%
Experimental: Naive CD4^+ T cells were collected from the spleen of a mouse using a CD4^+CD62L^hi T Cell Isolation Kit (Miltenyi Biotec). 0.5×10^6 cells/mL of the collected T cells were added to a RPMI 1640 medium to which penicillin/streptomycin (5,000 units/mL), 10% fetal bovine serum, and 50 μM of 2-mercaptoethanol were added. Subsequently, 1 μg/mL of anti-CD3 antibody (eBioscience) was added to the medium, and 1 μg/ml of anti-CD28 antibody (eBioscience) was further added thereto. The medium was then cultured at 37° C. for 3 days. Then, TGF-β1 (2 ng/mL) was added to the medium and cultured for 24 hours. After that, a FOXP3 Staining Buffer Kit (eBioscience) was used to fix the cells and treat cell membranes, and FOXP3 in the nuclei was stained. The stained cells were measured using a BD LSRFortessa™ (BD Bioscience) flow cytometer, and the obtained data was analyzed with FlowJo (Tree-Star version).

Caspase 3 = assay: Influence on Caspase 3, immunohistochemistry; assay type: cell-based; settings: 2 μM; 24 hours; control 1.0±0.1%
Experimental: The influence of GO-Y199 on NF-kB (p65) was investigated. The method is as follows. 3×10^6 cells of the HCT116 cell line were added to a 10-cm plate, 2 μM of GO-Y199 was added after 24 hours, the cells were collected after 24 hours, embedded in iPGell (GenOStaff), and fixed in formalin, paraffin blocks were then prepared, and immuno-histochemistry was performed with an anti-NF-kB (p65) antibody. In addition, 2 μM and 5 μM of GO-Y199 were added, lysates were collected after 24 hours, and an expression level of NF-kB (p65) was analyzed using an ELISA-plate (NF-kBp65 (pS536) SimpleStep-ELISA-kit, Abcam). An amount of protein was corrected by the absorbance of A 280 nm. The upper part of FIG. 14 indicates photographs of the control group and the GO-Y199 (2 μM)-added group after 24 hours. The lower part of FIG. 14 indicates results of the t-test of these groups after 24 hours. FIG. 15 indicates the comparison results of the NF-kB inhibitory effect of GO-Y199 (2 μM, 5 μM)-added groups with respect to the control group.
The influence of GO-Y199 on Caspase 3 was investigated. The method is as described above. Immunohistochemistry was performed with an anti-Caspase 3 antibody. Quantification of apoptosis-related protein was performed using M30 Apotosense ELISA (PEVIVA). The upper part of FIG. 20 indicates photographs of the control group and the GO-Y199 (2 μM)-added group after 24 hours. […]

[5] = system: malignant pleural mesothelioma cell line MSTO211H; assay: Cell growth inhibitory activity, MSTO211H; assay type: cell-based; settings: Table 8
Experimental: as §1, with “percentage. In Table 3, the turbidities of the compounds are also indicated.” for “percentage.”
(§3) GO-Y198, GO-Y199, and GO-Y200 against malignant pleural mesothelioma cell lines NCI-H226 and MSTO211H was measured. The method is as described above. For comparison, the IC50 of cisplatin (CDDP), a cytocidal anticancer agent, is also indicated.

[6] = system: breast cancer cell line HCC1395; assay: Cell growth inhibitory activity, HCC1395; assay type: cell-based
Experimental: [The source words this procedure for another cell line and reports this cell line under the same test.] as §1, §2

Kato III = assay: Cytocidal effect, Kato III; assay type: cell-based; settings: 2 μM and 5 μM, cells counted after 48 and 72 hours
Experimental: The method is as follows. Each cell line was added to 6-well plate by 5×10^4, 2 μM and 5 μM of GO-Y199 were added after 24 hours, and the number of cells was counted after 48 hours and 72 hours.

[7] = system: cutaneous T-cell lymphoma cell line HH; assay: Cell growth inhibitory activity, HH; assay type: cell-based; settings: Table 10
Experimental: [The source words this procedure for another cell line and reports this cell line under the same test.] as §1, §2

[8] = system: malignant pleural mesothelioma cell line NCI-H226; assay: Cell growth inhibitory activity, NCI-H226; assay type: cell-based; settings: Table 8
Experimental: as §1, with “percentage. In Table 3, the turbidities of the compounds are also indicated.” for “percentage.”
as §3

Molecule `COCOc1cc(/C=C/C(=O)CC(SCCOCCOCCOCCOCc2cn([C@@H]3O[C@H](CO)[C@@H](O[C@@H]4O[C@H](CO)[C@H](O)[C@H](O)[C@H]4O)[C@H](O)[C@H]3O)nn2)c2cc(OCOC)cc(OCOC)c2)cc(OCOC)c1` (stereo partly drawn) [GO-Y199] has an IC50 [1] of 750 nM, an IC50 ([2]; Table 4, 72 hours, read-out: IC50 KATO III) of 0.8 µM and an IC50 ([2]; Table 6, read-out: IC50 (μM) KATO III) of 3.86 µM. For the same molecule, the Turbidity/μm (Turbidity measurement; Table 1, average turbidity corrected for final concentration (1.7-170 μm, per compound)) was 0.00041 NTU/μM, the “Relative Value (turbidity)” value (Turbidity measurement; Table 1, turbidity/μm relative to curcumin = 1) was 0.0014 and the “Turbidity (Relative Value)” value (Turbidity measurement; Table 3, relative to curcumin = 1) was 0.0014. The “Ave Turbidity (NTU)” value (Turbidity measurement; final conc. 170 μm in DDW) was 0.07 ± 0.05 NTU, the appearance of solution (Turbidity measurement; final concentration 50 μM in distilled water or DMEM with 10% fetal bovine serum, from DMSO) was “clear” and the IC50 ([3]; Table 4, 72 hours) was 1050 nM. The “GO-Y199 vs GO-Y030 (IC50 comparison), HCC38” value ([3]; Table 5, ratio of IC50) was 0.58, the “induction ratio of FOXP3-positive regulatory T cells” value [4] was 2.22% and the “proportion of Caspase 3-expressing cells” value (Caspase 3) was 57.4±2.6%. The IC50 [5] was 2.4 µM, the IC50 ([6]; Table 4, 72 hours) was 720 nM and the “GO-Y199 vs GO-Y030 (IC50 comparison), HCC1395” value ([6]; Table 5, ratio of IC50) was 0.34. For the same molecule, the cytocidal effect (Kato III) was “cytocidal effect”, the IC50 [7] was 1.11 µM and the IC50 [8] was 4.7 µM.
